For the experiment, the target named is T1, BRAF V600E (Homo sapiens, UniProt P15056+Q96SW2, V600E).
T1 construct: knock-in of the HiBiT tag to the endogenous BRAF V600E locus; host or cells: A375.10 (A375 clonal line, CRISPR HiBiT knock-in at the endogenous BRAF V600E locus)
Description: BRAF V600E HiBiT Degradation Assay. It counts as cell-based. A digest of the protocol: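 Endogenous HiBiT knock-in on BRAF V600E in A375 cells (clone A375.10); 11-point half-log series, top 10 μM, 2, 6 or 24 h at 37° C. Lytic HiBiT luminescence, background-subtracted, normalized to DMSO; 4-parameter fit gives DC50, Emax (residual protein) and IP (inflection point).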
A general note: With HiBiT, luminescence reflects the tagged protein that the partner subunit can reach.

Setting [1] is: A375.10 cells, BRAF V600E, 2 hours, inflection point, read-out: HiBiT-Degradation A375.10 BRAF 2 hours IP.
[2] abbreviates: A375.10 cells, BRAF V600E, 2 hours, read-out: HiBiT-Degradation A375.10 BRAF 2 hours DC50.
[3] abbreviates: A375.10 cells, BRAF V600E, 6 hours, inflection point, read-out: HiBiT-Degradation A375.10 BRAF 6 hours IP.
[4] abbreviates: A375.10 cells, BRAF V600E, 6 hours, read-out: HiBiT-Degradation A375.10 BRAF 6 hours DC50.
Setting [5] is: A375.10 cells, BRAF V600E, 6 hours, residual protein remaining, read-out: HiBiT-Degradation A375.10 BRAF 6 hours Emax.
Where [6] appears, read: A375.10 cells, HiBiT, BRAF V600E, 24 hours, read-out: HiBiT-Degradation A375.10 BRAF 24 hours DC50.
[7] abbreviates: A375.10 cells, HiBiT, BRAF V600E, 24 hours, read-out: HiBiT-Degradation A375.10 BRAF 24 hours Emax.
The mark [8] stands for this setting: A375.10 cells, HiBiT, BRAF V600E, 24 hours, read-out: HiBiT-Degradation A375.10 BRAF 24 hours IP.
[9] abbreviates: read-out: HiBiT-Degradation A375.10 BRAF 2 hours Emax, A375.10 cells, BRAF V600E, 2 hours, residual protein remaining.
Where [10] appears, read: A375.10 cells, BRAF V600E, 2 hours, residual protein remaining, read-out: HiBiT-Degradation A375.10 BRAF 2 hours Emax.

Each structure is given as a SMILES string. Where two headings read alike, the source gives them in different places. Some results are limits rather than exact numbers.

T1 sequence (P15056 whole entry V600E): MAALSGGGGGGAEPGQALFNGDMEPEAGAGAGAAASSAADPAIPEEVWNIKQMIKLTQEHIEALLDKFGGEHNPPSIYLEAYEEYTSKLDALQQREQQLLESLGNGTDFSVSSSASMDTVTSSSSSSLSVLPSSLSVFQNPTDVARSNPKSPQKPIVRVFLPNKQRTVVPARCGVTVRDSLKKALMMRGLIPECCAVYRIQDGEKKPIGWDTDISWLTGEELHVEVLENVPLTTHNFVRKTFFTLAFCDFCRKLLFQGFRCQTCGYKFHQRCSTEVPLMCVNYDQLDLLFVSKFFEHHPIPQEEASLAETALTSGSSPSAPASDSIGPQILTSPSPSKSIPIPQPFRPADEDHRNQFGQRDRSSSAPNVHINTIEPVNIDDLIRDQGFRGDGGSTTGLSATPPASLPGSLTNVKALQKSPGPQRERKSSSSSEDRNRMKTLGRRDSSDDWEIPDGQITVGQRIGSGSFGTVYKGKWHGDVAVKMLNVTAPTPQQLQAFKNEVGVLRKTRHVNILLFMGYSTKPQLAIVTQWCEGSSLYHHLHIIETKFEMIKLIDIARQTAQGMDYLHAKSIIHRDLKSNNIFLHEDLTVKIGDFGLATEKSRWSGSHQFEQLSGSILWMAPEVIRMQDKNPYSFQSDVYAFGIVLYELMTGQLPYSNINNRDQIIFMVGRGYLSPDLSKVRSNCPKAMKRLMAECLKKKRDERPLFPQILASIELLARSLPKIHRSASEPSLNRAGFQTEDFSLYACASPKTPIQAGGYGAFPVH
T1 sequence (Q96SW2 whole entry): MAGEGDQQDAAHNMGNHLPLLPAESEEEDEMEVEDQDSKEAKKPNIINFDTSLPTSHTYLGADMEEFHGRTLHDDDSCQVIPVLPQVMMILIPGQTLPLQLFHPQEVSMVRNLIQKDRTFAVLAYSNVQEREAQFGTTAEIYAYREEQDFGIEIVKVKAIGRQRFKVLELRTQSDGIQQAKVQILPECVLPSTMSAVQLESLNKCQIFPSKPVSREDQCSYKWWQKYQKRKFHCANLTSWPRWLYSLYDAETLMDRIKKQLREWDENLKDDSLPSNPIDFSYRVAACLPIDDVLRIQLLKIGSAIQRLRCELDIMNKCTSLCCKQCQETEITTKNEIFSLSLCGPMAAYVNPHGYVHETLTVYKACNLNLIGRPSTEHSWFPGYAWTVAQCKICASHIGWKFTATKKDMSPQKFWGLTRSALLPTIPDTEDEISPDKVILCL
T1 sequence (Q16531 whole entry partner): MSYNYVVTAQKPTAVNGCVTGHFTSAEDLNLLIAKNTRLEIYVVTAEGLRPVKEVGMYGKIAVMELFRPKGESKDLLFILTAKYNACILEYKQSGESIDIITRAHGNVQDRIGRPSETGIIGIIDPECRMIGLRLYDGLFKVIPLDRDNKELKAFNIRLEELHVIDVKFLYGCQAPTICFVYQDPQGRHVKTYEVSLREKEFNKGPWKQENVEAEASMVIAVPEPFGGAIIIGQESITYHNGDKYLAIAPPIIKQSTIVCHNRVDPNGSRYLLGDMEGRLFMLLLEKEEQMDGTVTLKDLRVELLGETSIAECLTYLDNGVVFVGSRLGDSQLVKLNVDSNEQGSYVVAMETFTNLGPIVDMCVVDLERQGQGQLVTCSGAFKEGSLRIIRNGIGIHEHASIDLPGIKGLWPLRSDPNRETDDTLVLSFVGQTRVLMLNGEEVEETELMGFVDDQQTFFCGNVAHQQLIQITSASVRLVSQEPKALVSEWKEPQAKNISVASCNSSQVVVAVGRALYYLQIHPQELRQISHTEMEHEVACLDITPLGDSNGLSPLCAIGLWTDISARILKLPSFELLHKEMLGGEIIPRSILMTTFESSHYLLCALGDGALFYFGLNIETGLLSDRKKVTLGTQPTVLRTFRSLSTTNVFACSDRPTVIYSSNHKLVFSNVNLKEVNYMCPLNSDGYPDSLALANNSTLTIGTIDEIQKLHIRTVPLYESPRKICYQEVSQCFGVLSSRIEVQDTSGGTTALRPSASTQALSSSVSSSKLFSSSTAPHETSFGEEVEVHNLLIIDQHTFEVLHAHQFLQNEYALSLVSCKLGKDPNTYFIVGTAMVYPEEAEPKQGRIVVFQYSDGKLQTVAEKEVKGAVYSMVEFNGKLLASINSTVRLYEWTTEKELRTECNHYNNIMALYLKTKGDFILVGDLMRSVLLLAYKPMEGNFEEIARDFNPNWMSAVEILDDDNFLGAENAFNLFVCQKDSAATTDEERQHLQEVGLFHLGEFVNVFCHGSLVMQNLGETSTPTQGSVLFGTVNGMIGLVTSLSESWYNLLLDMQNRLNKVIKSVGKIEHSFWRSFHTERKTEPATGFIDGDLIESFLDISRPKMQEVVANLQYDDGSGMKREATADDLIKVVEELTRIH

What is called Emax is the maximal effect, on the per cent scale that the assay sets. Take `CCN(C)S(=O)(=O)Nc1ccc(F)c(Oc2ccc3ncc(OCC4CCN(C5CCC(c6cc7c(cc6F)c(N6CCC(=O)NC6=O)nn7C)CC5)CC4)nc3c2)c1C#N` (single isomer, unassigned) [Compound 118, 7-[2-cyano-3-[[ethyl(methyl)sulfamoyl]amino]-6-fluoro-phenoxy]-2-[[1-[4-[3-(2,4-dioxohexahydropyrimidin-1-yl)-5-fluoro-1-methyl-indazol-6-yl]cyclohexyl]-4-piperidyl]methoxy]quinoxaline]: the DC50 was < 1000 nM under setting [1]; < 1000 nM under setting [2]; < 1000 nM under setting [3]; < 1000 nM under setting [4]; < 1000 nM under setting [6]; < 1000 nM under setting [8]. Besides, the maximal response (Emax) by setting is: under setting [5], < 50%; under setting [7], < 50%; under setting [9], 50 to 90%.
For `Cn1nc(N2CCC(=O)NC2=O)c2cc(F)c(N3CC4(CC(N5CCC6(CC5)C[C@@H](n5cnc7ccc(Oc8c(F)ccc(NS(=O)(=O)N9CC[C@@H](F)C9)c8C#N)cc7c5=O)CO6)C4)C3)cc21` [Compound 133, (3R)-N-[2-cyano-3-[3-[(3R)-8-[2-[3-(2,4-dioxohexahydropyrimidin-1-yl)-5-fluoro-1-methyl-indazol-6-yl]-2-azaspiro[3.3]heptan-6-yl]-1-oxa-8-azaspiro[4.5]decan-3-yl]-4-oxo-quinazolin-6-yl]oxy-4-fluoro-phenyl]-3-fluoro-pyrrolidine-1-sulfonamide], the DC50 by setting is: under setting [1], < 1000 nM; under setting [2], > 10000 nM; under setting [3], < 1000 nM; under setting [4], < 1000 nM; under setting [6], < 1000 nM; under setting [8], < 1000 nM. Further, the Emax under setting [5] was < 50%, the Emax under setting [7] is < 50% and the Emax under setting [9] fell in the range of 50 to 90%.
Consider `CCN(C)S(=O)(=O)Nc1ccc(F)c(Oc2ccc3ncc([C@@H]4COC5(CCN(C6CCC(c7cc8c(cc7F)c(N7CCC(=O)NC7=O)nn8C)CC6)CC5)C4)nc3c2)c1C#N` (single isomer, unassigned) [Compound 54], for which the DC50 runs as follows: under setting [1], < 1000 nM; under setting [2], < 1000 nM; under setting [3], < 1000 nM; under setting [4], < 1000 nM; under setting [6], < 1000 nM; under setting [8], < 1000 nM. For the same compound, the Emax runs as follows: under setting [5], < 50%; under setting [7], < 50%; under setting [9], < 50%.
`CCN(C)S(=O)(=O)Nc1ccc(F)c(Nc2ccc3ncn([C@H]4COC5(CCN(C6CCC(c7cc8c(cc7F)c(N7CCC(=O)NC7=O)nn8C)CC6)CC5)C4)c(=O)c3c2F)c1C#N` (single isomer, unassigned) [Compound 67]: the DC50 runs as follows: under setting [1], < 1000 nM; under setting [2], < 1000 nM; under setting [3], < 1000 nM; under setting [4], < 1000 nM; under setting [6], < 1000 nM; under setting [8], < 1000 nM. Moreover, the Emax was < 50% under setting [10], < 50% under setting [5] and < 50% under setting [7].
As for `Cn1nc(N2CCC(=O)NC2=O)c2cc(F)c(N3CC4(CC(N5CCC6(CC5)CC(n5cnc7ccc(Oc8c(F)ccc(NS(=O)(=O)C9CCC9)c8C#N)cc7c5=O)C6)C4)C3)cc21` [Compound 259, N-[2-cyano-3-[3-[7-[2-[3-(2,4-dioxohexahydropyrimidin-1-yl)-5-fluoro-1-methyl-indazol-6-yl]-2-azaspiro[3.3]heptan-6-yl]-7-azaspiro[3.5]nonan-2-yl]-4-oxo-quinazolin-6-yl]oxy-4-fluoro-phenyl]cyclobutanesulfonamide], the DC50 was < 1000 nM (read-out: HiBiT-Degradation A375.10 BRAF 2 hours DC50, A375.10 cells, BRAF V600E, 2 hours) and < 1000 nM (read-out: HiBiT-Degradation A375.10 BRAF 2 hours IP, A375.10 cells, BRAF V600E, 2 hours, inflection point). Also, under setting [9], the Emax was < 50%.
For the compound `CCN(C)S(=O)(=O)Nc1ccc(F)c(Oc2ccc3ncn([C@H]4COC5(CCN(C6CCC(c7cc8c(cc7F)c(N7CCC(=O)NC7=O)nn8C)CC6O)CC5)C4)c(=O)c3c2)c1C#N` (single isomer, unassigned) [Compound 43], the DC50 runs as follows: under setting [1], < 1000 nM; under setting [2], < 1000 nM; under setting [3], < 1000 nM; under setting [4], < 1000 nM; under setting [6], < 1000 nM; under setting [8], < 1000 nM. Besides, the Emax by setting is: under setting [10], 50 to 90%; under setting [5], < 50%; under setting [7], < 50%.
Take `CCN(C)S(=O)(=O)Nc1ccc(F)c(Oc2ccc3ncn(C4CC5(CCN(C6CCN(c7cc8c(cc7F)c(N7CCC(=O)NC7=O)nn8C)CC6)CC5)C4)c(=O)c3c2)c1C#N` [Compound 156, 6-[2-cyano-3-[[ethyl(methyl)sulfamoyl]amino]-6-fluoro-phenoxy]-3-[7-[1-[3-(2,4-dioxohexahydropyrimidin-1-yl)-5-fluoro-1-methyl-indazol-6-yl]-4-piperidyl]-7-azaspiro[3.5]nonan-2-yl]-4-oxo-quinazoline]: the DC50 is, setting by setting: under setting [1], < 1000 nM; under setting [2], < 1000 nM; under setting [3], < 1000 nM; under setting [4], < 1000 nM; under setting [6], < 1000 nM; under setting [8], < 1000 nM. Moreover, the Emax under setting [5] is < 50%, the Emax under setting [7] is < 50% and the Emax under setting [9] was < 50%.
In the case of `CCN(C)S(=O)(=O)Nc1ccc(F)c(Oc2ccc3ncn([C@H]4CCC5(CCN(C6CCC(c7cc8c(cc7F)c(N7CCC(=O)NC7=O)nn8C)CC6)CC5)C4)c(=O)c3c2)c1C#N` (single isomer, unassigned) [Compound 33], the DC50 reads like this: under setting [1], < 1000 nM; under setting [2], < 1000 nM; under setting [3], < 1000 nM; under setting [4], < 1000 nM; under setting [6], < 1000 nM; under setting [8], < 1000 nM. For the same compound, the Emax reads like this: under setting [5], < 50%; under setting [7], < 50%; under setting [9], < 50%.
Take `CCN(C)S(=O)(=O)Nc1ccc(F)c(Oc2ccc3ncn(C4CC5(CCN(C6CCC(c7cc8c(cc7F)c(N7CCC(=O)NC7=O)nn8C)CC6F)CC5)C4)c(=O)c3c2)c1C#N` (single isomer, unassigned) [Compound 85]: the “HiBiT-Degradation A375.10 BRAF 2 hours Emax” value is listed as “*** (<=50%)”. In addition, under setting [1], the DC50 is < 1000 nM. The DC50 under setting [2] is < 1000 nM.

Values taken from patent publication US20260297060A1, “COMPOUNDS FOR THE DEGRADATION OF MUTANT BRAF” (C4 THERAPEUTICS, INC., priority 2023, published 2026).
